In ChEMBL document CHEMBL3046378, “3-(6-Chloronicotinyl)-2-nitromethylene-thiazolidine as a New Class of Insecticide Acting against Lepidoptera Species” (1992):
Active and inactive are the calls of the source. The rule behind the calls is not given here.

Assays:
Spodoptera litura [1] = test: Insecticidal activity against Spodoptera litura measured 5 days after artificial infestation; type: functional
Nephotettix cincticeps = test: Insecticidal activity against Nephotettix cincticeps (green rice leafhopper) measured 5 days after artificial infestation; type: functional
Plutella xylostella = test: Insecticidal activity against Plutella xylostella (diamondback moth) measured 5 days after artificial infestation; type: functional
Cnaphalocrocis medinalis = test: Insecticidal activity against Cnaphalocrocis medinalis measured 5 days after artificial infestation; type: functional
Spodoptera litura [2] = test: Insecticidal activity against Spodoptera litura at 1000 ppm measured 5 days after artificial infestation; type: functional, organism-based

Row | SMILES | LC90 (Spodoptera litura [1]) | LC90 (Nephotettix cincticeps) | LC90 (Plutella xylostella) | LC90 (Cnaphalocrocis medinalis) | Activity (Spodoptera litura [2])
1 | O=[N+]([O-])/N=c1\sccn1Cc1ccc(Cl)nc1 | 1000 ppm | 0.32 ppm |  |  | 
2 | O=[N+]([O-])/N=C1\SCCN1Cc1ccc(Cl)nc1 | 200 ppm | 1.6 ppm |  |  | 
3 | O=[N+]([O-])C=C1NCCCS1 | 40 ppm | 8 ppm | 1000 ppm | 200 ppm | 
4 | O=[N+]([O-])/C=C1\OCCN1Cc1ccc(Cl)nc1 | 1000 ppm | 8 ppm |  |  | 
5 | O=[N+]([O-])/N=C1\NCCN1Cc1ccc(Cl)nc1 [IMIDACLOPRID] | 40 ppm | 0.32 ppm | 200 ppm | 200 ppm | 
6 | O=[N+]([O-])/C=C1\NCCN1Cc1ccc(Cl)nc1 | 8 ppm | 0.32 ppm | 40 ppm | 200 ppm | 
7 | O=[N+]([O-])/C=C1\NCCS1 [2-(NITROMETHYLENE)THIAZOLIDINE] |  | 1000 ppm |  |  | inactive
8 | O=[N+]([O-])/C=C1\SCCN1Cc1ccc(Cl)nc1 | 1.6 ppm | 0.32 ppm | 1.6 ppm | 8 ppm | 
9 | O=[N+]([O-])/C=C1\CCCN1Cc1ccc(Cl)nc1 | 200 ppm | 1.6 ppm |  |  | 
